For this assay, the system named is fetal rat midbrain neurons. Briefly: Survival rate of primary midbrain neurons induced by MPP+ (CCK-8). The assay is classed as cell-based. The settings on record: for viability at 5 µM / viability at 10 µM / viability at 20 µM: Rattus norvegicus, Neuron, read-out: Survival rate (%). The source says:
The main pathological feature of Parkinson's disease (PD) lies in the degeneration and loss of dopaminergic neuron in the substantia nigra-striatum of the midbrain. 1-Methyl-4-phenylpyridinium (MPP+) has a high affinity to dopamine carriers and a selective toxicity on dopaminergic neurons. Thus, MPP+ is one of the most ideal classic neurotoxins for establishing PD cell models. The primary cell culture of fetal rat midbrain is often used to establish PD cell models in recent years. Although it is more cumbersome and has higher technical requirements than cell line culture, it is closer to the pathological characteristics of PD. Thus, a PD cell model is established using neurons from the primary cell culture of fetal rat midbrain under MPP+ induction, to evaluate the protective effect of target compounds on the model neurons.
The midbrain was separated from a fetal rat of a 15-day-pregnant SD rat and cut into pieces, then subjected to trypsin digestion, pipetting, screen filtration, and resuspension steps, and inoculated in a 24-well cell culture plate pre-coated with poly-D-lysine. 12 hours after culture, cytarabine was added to inhibit the growth of glial cells. On the 5th day of neuron growth, the toxin MPP+ can be added to make a PD cell model. When detecting the activity of a target compound, the target compound was pre-incubated with midbrain neurons for 3 h, then MPP+ was added, and after 48 h co-incubation the neuronal viability was detected by CCK-8 method and the neuronal survival rate was calculated to evaluate the inhibitory activity of the target compound on the midbrain neuronal PD damage. The experiment included blank control group, MPP+ model group, positive control group (caffeic acid phenethyl ester, CAPE), prototype control group (styryl sulfone compounds 3B, 3C, 3D, and 3G), and target compound group (prepared according to Examples 1-22 in the invention).

The mark [1] stands for this setting: 5 μM, 3 h pre-incubation, 48 h with MPP+.
Where [2] appears, read: 10 μM, 3 h pre-incubation, 48 h with MPP+.
[3] abbreviates: 20 μM, 3 h pre-incubation, 48 h with MPP+.

Data on six compounds can be found in patent US12410124B2 (priority 2019, dated 2025).

Read-outs that look alike come from different tables or passages of the source.

In the case of `COc1ccc(CC(=O)Oc2ccc(C(N)CS(=O)(=O)/C=C/c3ccc(OC(C)(C)C)c(OC(=O)N(C)c4ccccc4)c3)cc2)cc1` (stereo not drawn) [Compound P1-3, (E)-4-{1-amino-2-[4-t-butoxy-3-(N-methyl-N-phenylcarbamoyloxy)styrylsulfonyl]ethyl}phenyl-2-(4-methoxyphenyl)acetate], for the setting “48 h”, the viability at 5 µM is 71 ± 3.56%, the viability at 10 µM was 85.2 ± 2.94% and the viability at 20 µM amounted to 93.7 ± 3.08%.
On to `COc1ccc(CC(=O)Oc2ccc(/C(C)=C/S(=O)(=O)/C=C/c3ccc(OC(=O)N(C)C)c(O[Si](C)(C)CCl)c3)cc2)cc1` [Compound P1-7, 4-{(E)-1-[(E)-3-(chloromethyldimethylsiloxy)-4-(N,N-dimethylcarbamoyloxy)styrylsulfonyl]prop-1-en-2-yl}phenyl-2-(4-methoxyphenyl) acetate], for which, for the setting “48 h”, the viability at 5 µM is 79.2 ± 3.72%, the viability at 10 µM came to 86.6 ± 2.93% and the viability at 20 µM turned out to be 91.2 ± 2.08%.
In the case of `CC[Si](CC)(Oc1ccc(C(Cl)S(=O)(=O)/C=C/c2ccc(OC(=O)N3CC(C)OC(C)C3)c(OC(=O)c3cccc(Cl)c3OC)c2)cc1)c1ccccc1` (stereo not drawn) [Compound R1-5, (E)-4-{2-[4-(diethylphenylsiloxy)phenylchloromesyl]ethenyl}-2-(3-chloro-2-methoxybenzoyloxy)phenyl-2,6-dimethylmorpholine-4-carboxylate], the viability at 5 µM under setting [1] worked out at 72.3 ± 2.94%. Further, the viability at 10 µM under setting [2] was 82.5 ± 2.83%. For the same compound, under setting [3], the viability at 20 µM was 90.2 ± 1.76%.
For `Cc1ccc(S(=O)(=O)Oc2ccc(CS(=O)(=O)/C=C/c3ccc(OS(=O)(=O)c4ccc(C)cc4)c(OC(=O)N(C)S(=O)(=O)c4ccc(C)cc4)c3)cc2)cc1` [Compound S6-6, (E)-2-(N-methyl-N-p-tosylcarbamoyloxy)-4-{2-[(4-p-tosyloxyphenyl)mesyl]ethenyl}phenyl p-toluenesulfonate], where the note is “48 h”, the viability at 5 µM was found to be 72 ± 2.47%, the viability at 10 µM was found to be 83.2 ± 4.07% and the viability at 20 µM stood at 91.7 ± 3.18%.
Regarding `O=C(/C=C/c1ccc(O)c(O)c1)OCCc1ccccc1` [Positive control group, caffeic acid phenethyl ester, reference compound], the viability at 5 µM under setting [1] worked out at 55 ± 3.78%. Also, under setting [2], the viability at 10 µM was 67.1 ± 2.98%. Further, the viability at 20 µM under setting [3] is 82.6 ± 2.13%.
For “(E)-2-[(methylamino)methoxy]-4-{2-[1-(4′-nitro-[1,1′-biphenyl]-4-yl)ethylsulfonyl]ethenyl}phenylcarbamate [Compound M1-3]”, the “Survival rate (%)” value is listed as 76.51 ± 4.82% under setting [1], 85.29 ± 2.97% under setting [2] and 93.26 ± 2.26% under setting [3].
